Measured values as given in patent publication US20140194473A1, “IMIDAZOLE FUNGICIDES” (E I Du Pont De Nemours And Company, priority 2013, published 2014).

Key:
Format in all cases: in vivo
Septoria tritici = test: Test D: wheat leaf blotch, preventive spray on wheat seedlings; conditions: 40 ppm test suspension sprayed to run-off on wheat seedlings, inoculated the following day; 100 = 100% disease control, 0 = no control; triplicate, averaged
Method: (§1) General protocol for preparing test suspensions for Tests A-G: the test compounds were first dissolved in acetone in an amount equal to 3% of the final volume and then suspended at the desired concentration (in ppm) in acetone and purified water (50/50 mix by volume) containing 250 ppm of the surfactant Trem® 014 (polyhydric alcohol esters). The resulting test suspensions were then used in Tests A-G. Each test was conducted in triplicate, and the results were averaged. Spraying a 40 ppm test suspension to the point of run-off on the test plants was the equivalent of a rate of about 160 g/ha. Unless otherwise indicated, the rating values indicate a 40 ppm test suspension was used.
The test suspension was sprayed to the point of run-off on wheat seedlings. The following day the seedlings were inoculated with a spore suspension of Septoria tritici (the causal agent of wheat leaf blotch) and incubated in saturated atmosphere at 24° C. for 48 h. and then the seedlings were moved to a growth chamber at 20° C. for 19 additional days, after which time visual disease ratings were made.
(§2) Results for Tests A-G are given in Table A. In the Table, a rating of 100 indicates 100% disease control and a rating of 0 indicates no disease control (relative to the controls). A hyphen (-) indicates no test results.

[1] = system: Blumeria graminis f. sp. tritici; test: Test G: wheat powdery mildew, preventive spray on wheat seedlings; conditions: 40 ppm test suspension sprayed to run-off on wheat seedlings, inoculated with spore dust the following day; 100 = 100% disease control, 0 = no control; triplicate, averaged
Method: as §1
The test suspension was sprayed to the point of run-off on wheat seedlings. The following day the seedlings were inoculated with a spore dust of Blumeria graminis f. sp. tritici (also known as Erysiphe graminis f. sp. tritici, the causal agent of wheat powdery mildew) and incubated in a growth chamber at 20° C. for 8 days, after which time visual disease ratings were made.
as §2

[2] = system: Puccinia recondite f. sp. tritici; test: Test F: wheat leaf rust, preventive spray on wheat seedlings; conditions: 40 ppm test suspension sprayed to run-off on wheat seedlings, inoculated the following day; 100 = 100% disease control, 0 = no control; triplicate, averaged
Method: as §1
The test suspension was sprayed to the point of run-off on wheat seedlings. The following day the seedlings were inoculated with a spore suspension of Puccinia recondite f. sp. tritici (the causal agent of wheat leaf rust) and incubated in a saturated atmosphere at 20° C. for 24 h, and then moved to a growth chamber at 20° C. for 6 days, after which time visual disease ratings were made.
as §2

Septoria nodorum = test: Test C: Septoria glume blotch, preventive spray on wheat seedlings; conditions: 40 ppm test suspension sprayed to run-off on wheat seedlings, inoculated the following day; 100 = 100% disease control, 0 = no control; triplicate, averaged
Method: as §1
The test suspension was sprayed to the point of run-off on wheat seedlings. The following day the seedlings were inoculated with a spore suspension of Septoria nodorum (the causal agent of Septoria glume blotch) and incubated in a saturated atmosphere at 24° C. for 48 h, and then moved to a growth chamber at 20° C. for 9 days, after which time visual disease ratings were made.
as §2

Botrytis cinerea = test: Test A: tomato Botrytis, preventive spray on tomato seedlings; conditions: 40 ppm test suspension sprayed to run-off on tomato seedlings, inoculated the following day; 100 = 100% disease control, 0 = no control; triplicate, averaged
Method: as §1
The test suspension was sprayed to the point of run-off on tomato seedlings. The following day the seedlings were inoculated with a spore suspension of Botrytis cinerea (the causal agent of tomato Botrytis) and incubated in saturated atmosphere at 20° C. for 48 h, and then moved to a growth chamber at 24° C. for 3 additional days, after which time visual disease ratings were made.
as §2

Alternaria solani = test: Test B: tomato early blight, preventive spray on tomato seedlings; conditions: 40 ppm test suspension sprayed to run-off on tomato seedlings, inoculated the following day; 100 = 100% disease control, 0 = no control; triplicate, averaged
Method: as §1
The test suspension was sprayed to the point of run-off on tomato seedlings. The following day the seedlings were inoculated with a spore suspension of Alternaria solani (the causal agent of tomato early blight) and incubated in a saturated atmosphere at 27° C. for 48 h, and then moved to a growth chamber at 20° C. for 5 days, after which time visual disease ratings were made.
as §2

[3] = system: Puccinia recondite f. sp. tritici; test: Test E: wheat leaf rust, spray after inoculation of wheat seedlings; conditions: 40 ppm test suspension sprayed on wheat seedlings after inoculation (24 h incubation, then 2 days in growth chamber); 100 = 100% disease control, 0 = no control; triplicate, averaged
Method: as §1
Wheat seedlings were inoculated with a spore suspension of Puccinia recondite f. sp. tritici (the causal agent of wheat leaf rust) and incubated in a saturated atmosphere at 20° C. for 24 h, and then moved to a growth chamber at 20° C. for 2 days. After 2 days, the test suspension was sprayed to the point of run-off on the wheat seedlings, and then the seedlings were moved back to the growth chamber at 20° C. for 4 days. Upon removal, visual disease ratings were made.
as §2

Structure (SMILES) | Test D rating (disease control) (Septoria tritici) [%] | Test G rating (disease control) [1] [%] | Test F rating (disease control) [2] [%] | Test C rating (disease control) (Septoria nodorum) [%] | Test A rating (disease control) (Botrytis cinerea) [%] | Test B rating (disease control) (Alternaria solani) [%] | Test E rating (disease control) [3] [%]
Cc1ncn(Nc2ccc(F)cc2Cl)c1-c1ccc(F)cc1F [Compound 1, N-(2-chloro-4-fluorophenyl)-5-(2,4-difluorophenyl)-4-methyl-1H-imidazol-1-amine] | 92 | 91 | 95 | 0 | 100 | 70 | 
Cc1nc(Br)n(Nc2ccc(F)cc2Cl)c1-c1ccc(F)cc1F [Compound 2, 2-bromo-N-(2-chloro-4-fluorophenyl)-5-(2,4-difluorophenyl)-4-methyl-1H-imidazol-1-amine] | 100 | 100 | 99 | 60 | 99 | 0 | 30
Cc1ncn(Nc2ccc(Cl)cc2Cl)c1-c1ccc(F)cc1 [Compound 3] | 99 | 0 | 41 | 0 |  | 0 | 0
Cc1nc(Br)n(Nc2ccc(Cl)cc2Cl)c1-c1ccc(Cl)cc1 [Compound 5] | 99 | 0 | 9 | 0 |  | 0 | 0
Cc1nc(Br)n(Nc2ccc(Cl)cc2Cl)c1-c1ccc(F)cc1 [Compound 6] | 93 | 0 | 55 | 0 | 16 | 0 | 
Cc1ncn(Nc2ccc(Cl)cc2Cl)c1-c1ccc(F)cc1F [Compound 7, 5-(2,4-difluorophenyl)-N-(2,4-dichlorophenyl)-4-methyl-1H-imidazol-1-amine] | 100 | 91 | 97 | 0 | 100 | 0 | 0
Cc1nc(Br)n(Nc2c(Cl)cc(Cl)cc2Br)c1-c1ccc(F)cc1F [Compound 8, N-(2-bromo-4,6-dichlorophenyl)-4-methyl-2-bromo-5-(2,4-difluorophenyl)-1H-imidazol-1-amine] | 100 | 98 | 100 | 0 | 99 | 9 | 19
Cc1ncn(Nc2ccc(F)cc2F)c1-c1ccc(F)cc1F [Compound 9] | 79 | 0 | 14 | 0 | 87 | 0 | 36
Cc1nc(Br)n(Nc2ccc(F)cc2F)c1-c1ccc(F)cc1F [Compound 10, 2-bromo-N,5-bis(2,4-difluorophenyl)-4-methyl-1H-imidazol-1-amine] | 100 | 96 | 100 | 0 | 99 | 40 | 7
Fc1cc(F)c(Nn2c(Cl)nc(Cl)c2-c2ccc(Cl)cc2Cl)c(Cl)c1 [Compound 11, N-(2-chloro-4,6-difluorophenyl)-2,4-dichloro-5-(2,4-dichlorophenyl)-1H-imidazol-1-amine] | 0 | 52 | 0 | 0 | 0 | 0 | 0
Fc1ccc(-c2c(C(Cl)Cl)nc(Cl)n2Nc2ccc(F)cc2Cl)c(F)c1 [Compound 12] | 89 | 73 | 86 | 0 | 0 | 0 | 0
Fc1ccc(-c2c(CCl)nc(Cl)n2Nc2ccc(F)cc2Cl)c(F)c1 [Compound 13] | 97 | 98 | 95 | 0 | 66 | 0 | 0
Fc1ccc(Nn2c(Br)nc(Br)c2-c2ccc(Cl)cc2Cl)c(F)c1 [Compound 14] | 0 | 0 | 0 | 0 | 0 | 0 | 0
